Results reported in patent US10869864B2, “Combinations for the treatment of cancer” (IGNYTA, INC., priority 2015, dated 2020).

Columns and labels:
[1] = tested on: KM-12 TPM3-NTRK1 G595R cells; assay: Tumor growth in athymic nu/nu mice implanted subcutaneously with KM-12 TPM3-NTRK1 G595R cells; format: in vivo; conditions: for Average tumor volume / Percent tumor growth inhibition (% TGI): entrectinib 60 mg/kg, trametinib 1 mg/kg, p.o. q.d.
Procedure: Athymic nu/nu mice, 6-7 weeks old, female mice were implanted subcutaneously (right flank) with 2 million KM-12 TPM3-NTRK1 G595R cells/mouse. Animals were randomized once the mean tumor volume reached ˜150 mm^3.
Trametinib in vivo oral dosing solution was made by dissolving trametinib in a solution of DMSO (Lot #: SHBG1596V, D8418-100ML, Sigma), PEG 400 (Lot #: MKBX3961V, 202398-500G, Sigma), Tween 80 (Lot #: MKB58228V, P4780-100ML, Sigma) and water. The final concentration of trametinib was 0.1 mg/mL and the amounts of each component in the resulting solution were 3.3% DMSO, 16.7% PEG 400, 15% Tween 80 and 65% water, with the water being added just prior to dosing.
Athymic nu/nu female mice between 6-7 weeks of age were ordered from Charles River. Animals were allowed to acclimate 3 days prior to the start of the study (e.g., cell implantation). Animals were housed in irradiated, individual HEPA ventilated cages (Innocage® IVC, Innovive USA) on a 12-hour light-dark cycle at 68-79° F. and 30-70% humidity. Animals were provided with irradiated chow (Teklad 2920X) and acidified drinking water (Innovive) ad libitum as per the animal care and use protocol established at Explora Biolabs (Ignyta ACUP # EB15-050). Animals were identified by uniquely numbered ear-tags.
(§1) KM12 cells were cultured, harvested, and suspended in 1:1 FBS free culture media:martigel at a concentration of 10 million cells/mL. Cells were implanted under the skin on the right flank of each mouse on day 0. The implantation volume was 200 μL/mouse. Tumors grew until the mean tumor volume reached approximately 130 mm^3. On day 8 mice were randomized into 6 treatment groups (10 mice/group) and treatment began. […] The final treatment for all groups was administered on day 17, for a total of 10 doses. The final tumor and body weight measurements were taken on the final day of dosing, day 17.
(§2) Tumors measurements and body weights were collected 2×/week over the duration of the study. Tumor growth was assessed by caliper and tumor volumes were calculated using the equation (1). Animals with tumor volumes >2,000 mm^3 were removed from study. Volume (mm^3)=[length (mm)×width (mm)×width (mm)]/2 (1)
The percentage of tumor growth inhibition (% TGI) was calculated for each treatment group at each tumor measurement. The % TGI values were calculated using equation (2) below, where TVvehicle is the tumor volume for the vehicle-treated animals at a specified time point, TVinitial is the initial tumor volume at the start of the treatment and TVtreatment is the tumor volume of the treatment group at a specified end-point time. Differences in tumor volumes were assessed by ANOVA using GraphPad Prism (version 6.07, GraphPad Software, Inc.). % TGI=[(TVvehicle−TVtreatment)/(TVvehicle−TVinitial)]×100

[2] = Tolerability, body weight and toxicity in the KM-12 TPM3-NTRK1 G595R mouse study; conditions: any animals receiving trametinib 1 mg/kg p.o. q.d.
Procedure: as §1, §2

[3] = day 8 after cell implantation (randomization, treatment began)
[4] = day 8 after cell implantation (treatment began)
[5] = day 17 after cell implantation (10 doses)
[6] = day 17 after cell implantation (final day, 10 doses)

SMILES | Average tumor volume [1, 3] [mm^3] | Percent tumor growth inhibition (% TGI) [1, 4] [%] | Average tumor volume ([1]; day 11 after cell implantation) [mm^3] | Percent tumor growth inhibition (% TGI) ([1]; day 11 after cell implantation) [%] | Average tumor volume ([1]; day 14 after cell implantation) [mm^3] | Percent tumor growth inhibition (% TGI) ([1]; day 14 after cell implantation) [%] | Percent tumor growth inhibition (% TGI) [1, 5] [%] | Average tumor volume [1, 6] [mm^3] | tumor volume difference from vehicle, two-way ANOVA ([1]; by day 14, p<0.05) | tumor volume difference from vehicle, one-way ANOVA ([1]; days 14 and 17) | Toxicity (evaluated based on body weight loss) [2]
CN1CCN(c2ccc(C(=O)Nc3n[nH]c4ccc(Cc5cc(F)cc(F)c5)cc34)c(NC3CCOCC3)c2)CC1 [Entrectinib, N-[5-(3,5-difluorobenzyl)-1H-indazol-3-yl]-4-(4-methyl-piperazin-1-yl)-2-(tetrahydro-pyran-4-ylamino)-benzamide] | 148.2 | 100.0 | 403.2 | −15.1 | 934.5 | −4.5 | −11.6 | 2057.8 | – | – | –
CC(=O)Nc1cccc(-n2c(=O)n(C3CC3)c(=O)c3c(Nc4ccc(I)cc4F)n(C)c(=O)c(C)c32)c1 [Trametinib] | 146.7 | 100.0 | 254.8 | 51.5 | 373.1 | 70.0 | 76.7 | 544.9 | significantly different from vehicle | Differences were found | Toxicity was observed
